Data as given in patent US20100210835A1, “Mimetic Drug Delivery Systems for Release with Specific Molecular Triggers” (BOARD OF REGENTS, THE UNIVERSITY OF TEXAS SYSTEM, priority 2009, published 2010).

Key:
Format in all cases: physicochemical
[1] = Loading of films with geraniol; settings: lactic acid-triggered films, 7 mm discs
Experimental: Loading of films with and Active Agent. The active agent geraniol was used for release studies. Once dry, 7 mm discs were carefully cut out using a standard stainless steel cork borer. The discs were lifted out and placed on a clean dish. For the loading, 100 mg of geraniol was weighed out and dissolved in 100 ml of 50% ethanol:distilled water, resulting in a final concentration of 1.0 mg/ml. The mixture was vigorously mixed and sonicated for 5 minutes. In the meantime discs were arranged in a segmented plastic container and the geraniol solution gently pipetted onto the discs until they were fully covered. The container was tightly covered and left at room temperature overnight. The following day the geraniol solution was gently removed by pipette until the discs were visible. The discs were washed three times with water and placed on a clean foil and left to dry overnight.

[2] = Release of geraniol from MIP polymers in lactic acid solutions; settings: 200 mg/dl lactic acid, 24 hours; FIG. 8
Experimental: Loading of films with and Active Agent. The active agent geraniol was used for release studies. Once dry, 7 mm discs were carefully cut out using a standard stainless steel cork borer. The discs were lifted out and placed on a clean dish. For the loading, 100 mg of geraniol was weighed out and dissolved in 100 ml of 50% ethanol:distilled water, resulting in a final concentration of 1.0 mg/ml.
The mixture was vigorously mixed and sonicated for 5 minutes. In the meantime discs were arranged in a segmented plastic container and the geraniol solution gently pipetted onto the discs until they were fully covered. The container was tightly covered and left at room temperature overnight. The following day the geraniol solution was gently removed by pipette until the discs were visible. The discs were washed three times with water and placed on a clean foil and left to dry overnight.
Preparation of lactic acid solutions. […]
Incubation Study—Geraniol. […] The stop clock started and samples were taken (100 ul) into HPLC autosampler vials and the concentration of geraniol present was determined by injecting onto a C18 HPLC column and monitoring at a wavelength of 195 nm.
Assay for Geraniol. Geraniol concentration was quantified using an HPLC Diode array detector (DAD) at 195 nm. After blanking with water, samples were injected and the peak area of the geraniol peak recorded. […]

[3] = Release of Nile Blue from MIP polymers in glucose solutions
Experimental: Loading of Films with Nile Blue For Release Studies. For dye loading, 50 mg of Nile Blue was weighed out and dissolved in 100 ml of distilled water, resulting in a final concentration of 0.5 mg/ml. The mixture was vigorously mixed and sonicated for 5 minutes. In the meantime discs were arranged in a segmented plastic container and the Nile Blue solution gently pipetted onto the discs until they were fully covered. The container was covered and left at room temperature overnight.
The following day the Nile Blue was gently removed by pipettes until the discs were visible. The discs were carefully removed and washed three times with water and then placed in a clean container and covered in water. The container was then placed on a hot plate set to 55° C. and left for three hours. The water was removed and the process repeated. At the end of six hours the discs were removed and placed on a clean foil and dried overnight at room temperature. The following day the discs were ready for study.
Preparation of glucose solutions. Glucose (200 mg) was weighed out and dissolved in 100 ml of water, resulting in a final concentration of 200 mg/dl.
Incubation—Nile Blue. The above solutions of glucose or lactic acid were used as triggers for Nile Blue release. 4 ml of each solution was placed into three petri dishes kept at room temperature. Stained discs were placed into each dish and the dish covered. Samples were taken (400 ul) into micro-cuvettes at specific time points and the concentration of Nile Blue present was determined by measuring the absorbance of the Nile Blue solutions at 625 nm.

Row | Compound | loading of geraniol in MIP films [1] | release of geraniol from MIP films [2] [%] | release of Nile Blue from MIP films ([3]; films moved at 365 minutes from water to 200 mg/dl glucose, FIG. 5) | release of Nile Blue from MIP films ([3]; films moved at 450 minutes from glucose solution to fresh water, FIG. 6) | release of Nile Blue from MIP films ([3]; in water, about 5 hours) | release of Nile Blue from MIP films ([3]; increasing glucose concentration, FIG. 4)
1 | CC(C)=CCC/C(C)=C/CO [Geraniol] | approximately 145 μg per disc | ~100 |  |  |  | 
2 | CC[N+](CC)=c1ccc2nc3c(cc(N)c4ccccc43)oc-2c1 [Nile Blue] |  |  | began almost immediately | stopped almost immediately | not showed any significant release | released in increasing amounts
